What is called AC50 is the concentration giving half of the maximal activity seen.

This note sets out measurements from PubChem BioAssay AID449750 (Broad Institute, 2010).

Activity calls are given as the source filed them. The rule behind the calls is not given here.

The assay can be described thus: non-covalent RecA intein splicing inhibitors, dose response, biochemical, cell-free, fluorescence, secondary screen (AID 449750).
For the molecule `CC1OC(Nc2cccc3ccccc23)C(O)C(O)C1O` (configuration not stated), the AC50 was > 38 µM (inactive).

For the molecule `Cc1nc2ccccc2c2c1C(=O)N(c1cccc(C(=O)O)c1)C2=O`, the AC50 is > 38 µM (inactive).

Consider `CC(=O)Nc1ccc(NC(=O)c2nc(S(=O)(=O)Cc3ccccc3)ncc2Cl)cc1`, for which the AC50 is > 38 µM (inactive).

`COc1ccc(COC(=O)N/N=C(\C)CC(=O)Nc2ccc(Cl)cn2)cc1`: the AC50 is > 38 µM (inactive).

On to `CC1CCCN(C2=C(Cl)C(=O)N(c3cccc(Cl)c3)C2=O)C1` (configuration not stated), for which the AC50 was > 38 µM (inactive).

Consider `S=C1Cc2ccccc2N1`, for which the AC50 is 3.46 µM.

Turning to `O=C(O)COc1ccc(/C=C2/SC(=S)N(Cc3ccccc3)C2=O)cc1`, the AC50 is 31.6 µM.

Take `CCOC(=O)c1c(C)oc2c1c(C=NCCC(=O)O)c(O)c1ccccc12`: the AC50 is 22.1 µM.

Take `CC(C)c1[nH]nc2c1C(Cc1ccccc1)C(C#N)=C(N)O2` (configuration not stated): the AC50 was > 38 µM (inactive).

As to `CC(C)(C)c1cc(NC(=O)CCl)n(-c2ccccc2)n1`, the AC50 is 22.2 µM.

For the molecule `CCOc1ccc(-n2c(C)cc(C(=O)CCl)c2C)cc1`, the AC50 was 9.25 µM.

With `CCCCNC1C(CC)C(CCC)C(C#N)(C#N)C1(C#N)C#N` (configuration not stated), the AC50 is > 38 µM (inactive).

For the molecule `CCCC(=O)OCCNc1cc(Sc2nc3ccccc3[nH]2)c2nonc2c1[N+](=O)[O-]`, the AC50 was > 38 µM (inactive).

Turning to `O=c1c2ccccc2nc(/C=C/c2cccnc2)n1Cc1ccccc1`, the AC50 is 13.6 µM.

Consider `Cc1ccc(C2CC(c3cccs3)=NN2C(=O)CSC2=NCCS2)cc1` (configuration not stated), for which the AC50 is 9.96 µM.

In the case of `CC(C)(c1ccccc1)c1ccc(OCC2CO2)cc1` (configuration not stated), the AC50 is 8.68 µM.

On to `CC1=NNC(=O)C1Cc1ccccc1C` (configuration not stated), for which the AC50 was > 38 µM (inactive).

For `CCCCCC(=O)Cc1cc(O)cc2c1C(=O)Oc1cc(O)c(C(=O)O)c(CCCCC)c1O2`, the AC50 is 6.09 µM.

As to `CCc1[nH]nc2c1C(c1ccc(C)o1)C(C#N)=C(N)O2` (configuration not stated), the AC50 is > 38 µM (inactive).

For the molecule `O=C(CCl)N1c2ccccc2CCc2ccccc21`, the AC50 is 3.76 µM.

As to `O=C(Cc1ccccc1)c1c[nH]c(C(=O)C(Cl)(Cl)Cl)c1`, the AC50 is 38.1 µM.

With `COC(=O)C(O)(c1c(C)[nH]n(-c2ccccc2)c1=O)C(F)(F)F` (configuration not stated), the concentration at half-maximal activity (AC50) is 5.49 µM.

In the case of `Clc1ccc(Sc2oc(/C=N/n3cnnc3)cc2Br)cc1`, the AC50 is > 38 µM (inactive).

With `CC(C)CC1C(C#N)=C(N)Oc2n[nH]c(-c3ccccc3)c21` (configuration not stated), the half-maximal activity concentration (AC50) was 23.1 µM.

On to `Oc1ccc(N=Cc2ccc(OCc3ccccc3)cc2)cc1`, for which the AC50 is > 38 µM (inactive).

As for `O=C(CN1CCN(S(=O)(=O)c2ccc(Cl)cc2)CC1)Nc1ccc2c(c1)OCO2`, the AC50 is > 38 µM (inactive).

`Cc1ccccc1NC1=C(Cl)C(=O)OC1OC(=O)c1ccco1` (configuration not stated): the AC50 was > 38 µM (inactive).

For `CCCCC(O)(CCCC)C(=O)NN(C(=O)CCl)c1ccccc1`, the AC50 is 6.32 µM.

Consider `CN1c2ccccc2C(C)(C)C12C=Nc1c(ccc3ccccc13)O2` (configuration not stated), for which the AC50 is 21.2 µM.

With `CCOC(=O)CNc1nnc(SCC(=O)OCC)[nH]c1=O`, the AC50 is 10.2 µM.

On to `CCOC(=O)c1cnc(N)nc1C(F)(F)F`, for which the AC50 is > 38 µM (inactive).

With `Oc1cccc(Nc2nc(-c3ccccc3Cl)nc3ccccc23)c1`, the AC50 was > 38 µM (inactive).

`N#Cc1c(-c2ccccc2)nc(SCC(=O)N2c3ccccc3Sc3ccccc32)[nH]c1=O`: the AC50 is 8.24 µM.

For `Cc1ccc(C)c(S(=O)(=O)Nc2ccc(O)c3ccccc23)c1`, the AC50 is 0.598 µM.

On to `O=c1cc(-c2ccccc2)[nH]n1-c1ccc([N+](=O)[O-])cc1`, for which the AC50 was 13.1 µM.

As to `CC1=NN(c2ccc(Cl)c(C(=O)O)c2)C(=O)C1`, the AC50 is 3.21 µM.

With `CC1CC(=O)c2c(cc3c(-c4c(O)cc(O)c5c(O)c6c(cc45)OC(C)CC6=O)c(O)cc(O)c3c2O)O1` (configuration not stated), the AC50 was 2.71 µM.

As to `Oc1ccc(Nc2nc(-c3ccc4ccccc4c3)cs2)cc1`, the AC50 was > 38 µM (inactive).

As to `Cc1ccc(SCc2[nH]nc3c2C2(CCSCC2)C(C#N)=C(N)O3)cc1`, the AC50 is 30.4 µM.

Take `COC(=O)c1cccc(-c2ccc(C(c3c(C)[nH][nH]c3=O)c3c(C)[nH][nH]c3=O)o2)c1`: the AC50 was 3.29 µM.

On to `N#CC1=C(N)Oc2n[nH]c(-c3ccc(F)cc3)c2C1c1ccncc1` (configuration not stated), for which the AC50 was 8.32 µM.

As to `Cc1cc(C)c(S(=O)(=O)/N=C2\C=C(Nc3ccc(C(=O)O)cc3)C(=O)c3ccccc32)c(C)c1`, the AC50 was 0.669 µM.

Turning to `O=c1cc(C23CC4CC(CC(C4)C2)C3)[nH][nH]1`, the AC50 was > 38 µM (inactive).

Turning to `CC(C)(C)OC(=O)N/N=C\c1ccc(OC(=O)c2ccco2)cc1`, the AC50 is > 38 µM (inactive).

`CC1=NN(c2ccccc2)C(=O)/C1=C/c1cn(C)c2ccccc12`: the AC50 was > 38 µM (inactive).

For the molecule `CCOC(=O)c1c(CSC(=N)N)n(-c2ccc(C)cc2)c2cc(Br)c(OC(C)=O)cc12`, the AC50 is 8.36 µM.

As for `CC1(C)Nc2ccc(O)cc2-c2c1ssc2=S`, the AC50 is > 38 µM (inactive).

Turning to `C[C@@H]1CC=C[C@H]2[C@H]1C(=O)N(Cc1ccccc1)[C@H]2c1ccc(F)c(Br)c1`, the AC50 is 17.9 µM.

Consider `COc1cc(Cc2nccc3cc(OC)c(OC)cc23)c(S(=O)(=O)O)cc1OC`, for which the AC50 is > 38 µM (inactive).

Take `COc1ccc(-c2cc(C(F)(F)F)nc(S(=O)(=O)CCCC(=O)Nc3cccc(O)c3)n2)cc1OC`: the AC50 is > 38 µM (inactive).

Take `COc1ccc(OC)c(NC(=O)Cc2ccc(NC3=NC4CS(=O)(=O)CC4S3)cc2)c1` (configuration not stated): the AC50 is > 38 µM (inactive).

Regarding `CC(=O)N1C(=O)C2(C(C#N)=C(N)Oc3c2c(C)nn3-c2ccccc2)c2ccccc21` (configuration not stated), the AC50 was 28 µM.

As for `COc1ccc(-c2nnc(Sc3nc4ccccc4o3)c3ccccc23)cc1`, the AC50 is 18.8 µM.

In the case of `CC(=O)NC1C(=O)N(CCN2CCOCC2)c2ccc(Br)cc21` (configuration not stated), the AC50 is 18.1 µM.

For `CCSC1(SCC)N=C(N)C2(C#N)C(c3ccc(F)cc3)C12C#N` (configuration not stated), the AC50 was 38.3 µM.

As for `COc1cc(/C=C/c2cc[n+](C)cc2)ccc1OCC(=O)Nc1ccc(Cl)c(Cl)c1`, the AC50 is > 38 µM (inactive).

As for `Cc1ccc(C2=NN(C(=O)CCl)C(c3ccco3)C2)o1` (configuration not stated), the AC50 was 6.65 µM.

In the case of `CC(C)c1[nH]nc2c1C(c1cccc(OC(=O)N3CCOCC3)c1)C(C#N)=C(N)O2` (configuration not stated), the AC50 was > 38 µM (inactive).

Take `CC1=NN(c2ccc(C)cc2C)C(=O)C1C(c1cccc(O)c1)C1C(=O)N(c2ccc(C)cc2C)N=C1C` (configuration not stated): the AC50 was 3.51 µM.

`Cc1c(-c2nn(C)c(=O)c3ccccc23)oc2ccc(F)cc2c1=O`: the concentration at half-maximal activity (AC50) was 3 µM.

Turning to `COC(=O)C1=C(C)NC(=S)NC1c1ccc(OC(=O)c2ccco2)cc1` (configuration not stated), the AC50 was > 38 µM (inactive).

As to `CCOC(=O)CC1=NN(c2ccccc2)C(=O)/C1=C\c1ccc(OC)cc1OC`, the AC50 is 2.34 µM.

Consider `Brc1ccc(Cn2c(-c3ccc(Br)o3)nc3ccccc32)o1`, for which the AC50 was 23.2 µM.

As for `CC1=C(C)/C(=N\OS(=O)(=O)c2ccccc2)C=CC1=O`, the AC50 was > 38 µM (inactive).

In the case of `Cc1cccc(OCC(=O)Oc2ccc(Cl)cc2)c1`, the AC50 was > 12 µM (inactive).

As for `CN(C1=C(NC(=O)c2ccccc2)C(=O)c2ccccc2C1=O)C1CCS(=O)(=O)C1` (configuration not stated), the AC50 is 3.3 µM.

As to `COc1cc(NCCCC(C)N)c2ncccc2c1` (configuration not stated), the AC50 is 18.1 µM.
